In brackets after ≈: the same amount, converted by molar mass.
Columns and labels:
[1] = test system: Human alphaherpesvirus 2; assay: Antiviral activity against HSV2 MS in african green monkey Vero cells by viral cytopathic effect assay; type: functional, organism-based; conditions: Human alphaherpesvirus 2, MS
[2] = test system: Vero; assay: Cytotoxicity against african green monkey Vero cells by MTT assay; type: cell-based; conditions: Chlorocebus sabaeus
[3] = Selectivity index, ratio of IC50 for african green monkey Vero cells to EC50 for HSV2 MS
[4] = test system: Influenza A virus; assay: Antiviral activity against influenza A virus NWS33 in MDCK cells assessed as inhibition of viral cytopathic effect by neutral red assay; type: functional, organism-based
[5] = Selectivity index, ratio of IC50 for MDCK cells to EC50 for influenza A virus NWS33; type: toxicity, cell-based; conditions: dog, read-out: Ratio IC50/EC50
[6] = Selectivity index, ratio of IC50 for MDCK cells to EC50 for influenza A virus NJH1N1; type: toxicity, cell-based; conditions: dog, read-out: Ratio IC50/EC50
[7] = test system: MDCK; assay: Cytotoxicity against MDCK cells by neutral red assay; type: cell-based; conditions: Canis lupus familiaris
[8] = test system: Influenza A virus; assay: Antiviral activity against influenza A virus NJH1N1 in MDCK cells by hemadsorption-inhibition assay; type: functional, organism-based

Row | Compound | EC50 [1] | IC50 [2] | Ratio IC50/EC50 [3] | EC50 [4] | selectivity ratio [5] | selectivity ratio [6] | IC50 [7] | EC50 [8]
1 | Nc1nc2c(ncn2COCCO)c(=O)[nH]1 [ACYCLOVIR] | 1.5 µg/mL (≈ 6.66 µM) | > 100 µg/mL | >60 |  |  |  |  | 
2 | COC(=O)C(Cc1ccc2c(c1)OCO2)C(Cc1cc(OC)c2c(c1)OCO2)C(=O)OC (stereo unspecified) [RHINACANTHIN F] |  | 4.4 µg/mL (≈ 9.9 µM) |  | 3.1 µg/mL (≈ 6.98 µM) | 6.8 | > 18 | 17 µg/mL (≈ 38.3 µM) | < 0.94 µg/mL
3 | NC(=O)c1ncn([C@@H]2O[C@H](CO)[C@@H](O)[C@H]2O)n1 [RIBAVIRIN] |  |  |  | 3.7 µg/mL (≈ 15.2 µM) | > 59 |  | > 200 µg/mL | 
4 | NC12CC3CC(CC(C3)C1)C2 [AMANTADINE] |  |  |  |  |  | 1000 | 56 µg/mL (≈ 370 µM) | 0.054 µg/mL (≈ 0.357 µM)
5 | COC(=O)/C(=C/c1ccc2c(c1)OCO2)C(Cc1cc(OC)c2c(c1)OCO2)C(=O)OC (stereo unspecified) [RHINACANTHIN E] |  | 17 µg/mL (≈ 38.4 µM) |  | 7.4 µg/mL (≈ 16.7 µM) | 15 | 26 | 44 µg/mL (≈ 99.5 µM) | 1.7 µg/mL (≈ 3.84 µM)
